Each structure is given as a SMILES string.

Type in all cases: in vivo
One assay relates to hypersecretion. Nature of the assay: Anti-secretory activity test (Shay et al). Set-up: key to Anti-secretory, % change in Vol.: NS: Not Significant. As to conditions: for change in vivo at 30 mg/kg / change in vivo at 10 mg/kg: read-out: Anti-secretory, % change in Vol.; for change in vivo at 30 mg/kg / Anti-secretory, % change in Vol.: 30 mg/kg. On the procedure: (§1) Anti-ulcer activity was determined by the stress-induced erosion test of Senay & Levine, Proc. Soc. Exp. Biol. Med., 124, 1221-1223 (1967) and anti-secretory activity by the test of H. Shay, D. Sun and H. Greenstin, Gastroenterology, 1954, 26, 903-913 as exemplified by Beattie et al J. Med. Chem., 20, 714 (1977). […] However, some compounds show activity in tests for anti-hypertensive activity.

Assay [1] concerns male spontaneously hypertensive rats. Nature of the assay: Antihypertensive activity, Procedure A: systolic pressure of spontaneously hypertensive rats. The protocol:
Systolic pressure of male spontaneously hypertensive rats is measured by an indirect technique using the Decker Caudal Plethysmograph or other appropriate sensor. Groups usually consist of 4 rats. Drugs are usually administered orally. Pressures are usually read prior to drug administration and at 1.5, 4 and 24 hours thereafter. This schedule may be altered depending upon the behaviour of the drug.

A further assay has as its system stress-induced erosion. Nature of the assay: Stress-induced erosion test (Senay & Levine), anti-ulcer activity. The protocol:
as §1

The subject of assay [2] is Female rats rendered hypertensive. Put plainly: Antihypertensive activity, Procedure B: deoxycorticosterone acetate hypertensive rats (unilateral nephrectomy). Particulars: 50 mg/kg orally. The protocol:
Female rats are rendered hypertensive by unilateral nephrectomy and the s.c. implantation of a pellet containing 30 mg of deoxycorticosterone acetate. The drinking water is replaced by normal saline ad lib for the first four weeks following preparation. Blood pressures stabilise at a hypertensive level after 6 weeks. Systolic pressure is measured indirectly before dosing with a test compound using an E and M pneumatic pulse transducer and a Devices MX2 recorder. Groups of 4 rats are dosed orally with suspensions or solutions of the test compound in 0.5% hydroxypropyl-methyl-cellulose 0.9% saline vehicle. Blood pressures are recorded again at 2, 6 and 24 hours and the results, expressed as a percentage of the pre-dose values compared with those of a similar group of rats receiving vehicle alone.

For `CC(C)c1ccc(CSc2cccc[n+]2C)cc1` [Example 18, 2-((-4-Isopropylbenzyl)thio)-1-methylpyridinium chloride], in the assay on hypersecretion, the change in vivo at 30 mg/kg was -39%. Further, the “Antihypertensive activity (Procedure A)” value in assay [1] (50 mg/kg orally) was “inactive”. In the assay with stress-induced erosion, the inhibition in vivo (commonly the percentage by which the read-out fell short of the control) at 30 mg/kg was determined as 60% and at 100 mg/kg the inhibition in vivo was 71%.
For `C[n+]1ccccc1SCc1cccc(Br)c1` [Example 17, 2-(3-Bromobenzylthio)-1-methylpyridinium bromide], the change in vivo at 30 mg/kg with hypersecretion is -52%. Moreover, the “Antihypertensive activity (Procedure A)” value in assay [1] (50 mg/kg orally) is “inactive”. In the assay with stress-induced erosion, this compound displayed an inhibition in vivo at 100 mg/kg of 64%.
Consider `C[n+]1ccccc1SCc1c(Cl)cccc1Cl` [Example 5, 2-(2,6-Dichlorobenzylthio)-1-methylpyridinium chloride], for which, in the assay with hypersecretion, the change in vivo at 10 mg/kg was -35% and the change in vivo at 30 mg/kg is -65%. Besides, the “Antihypertensive activity (Procedure A)” value in assay [1] (75 mg/kg orally) is “showed activity”. In the assay with stress-induced erosion, this compound returned an inhibition in vivo at 100 mg/kg of 70%.
As to `C[n+]1ccccc1SCC1CCCCC1` [Example 12, 2-(Cyclohexylmethylthio)-1-methylpyridinium bromide], the “Anti-secretory, % change in Vol.” value with hypersecretion is recorded as “NS”. Also, the “Antihypertensive activity (Procedure B)” value in assay [2] was “inactive”. For the same compound, in the assay on stress-induced erosion (10 mg/kg), the inhibition in vivo at 10 mg/kg was determined as 64%. Moreover, in the assay with stress-induced erosion, the inhibition in vivo at 30 mg/kg is 67% and 100 mg/kg produced 87% inhibition in vivo.
`C[n+]1ccccc1SCc1cccc(Cl)c1` [Example 11, 1-Methyl-2-(3-chlorobenzylthio(pyridinium chloride]: in the assay on hypersecretion, the change in vivo at 10 mg/kg is -42% and the change in vivo at 30 mg/kg is -70%. For the same compound, in assay [2], the “Antihypertensive activity (Procedure B)” value was “inactive”. Moreover, the inhibition in vivo at 100 mg/kg in the assay on stress-induced erosion was 62%.
Turning to `C[n+]1ccccc1SCC(=O)c1ccccc1` [Example 15, 1-Methyl-2-phenacylthiopyridinium bromide], in the assay on hypersecretion, the “Anti-secretory, % change in Vol.” value is “NS”. Also, the “Antihypertensive activity (Procedure A)” value in assay [1] (75 mg/kg orally) is given as “showed activity”. Moreover, testing at 100 mg/kg with stress-induced erosion gave an inhibition in vivo of 100%.

These data come from patent US4304781A, “Treatment of ulcers and hypertension” (John Wyeth & Brother Limited, priority 1978, dated 1981).
